We go through eleven compounds from patent US20080227780A1, “SOLUBLE EPOXIDE HYDROLASE INHIBITORS” (Arete Therapeutics, Inc., priority 2007, published 2008).

For the assay, the system named is soluble epoxide hydrolase (sEH). As to the kind of experiment: Fluorescent assay for soluble epoxide hydrolase (CMNPC substrate), percent inhibition at the recited concentration. In kind it is biochemical. The method, boiled down: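 Purified recombinant baculovirus-expressed sEH in 25 mM Bis/Tris HCl pH 7.0 with 0.1 mg/mL BSA; inhibitor serially diluted and preincubated with enzyme 5 min at 30 °C. Reaction started with 5 μM (final) substrate; fluorescence (ex 330/em 465 nm) read every 30 s for 10 min, and velocities give % inhibition.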

SMILES strings stand for the structures.

On to `CC(=O)N1CCC(NC(=O)NC2CCC3(CCCC3)CC2)CC1` [Compound 7-83, 1-(1-acetylpiperidin-4-yl)-3-(spiro[4.5]decan-8-yl)urea], for which, for the setting “Inhibition Conc. 2000 nM”, the “% inh.” value is on record as 100%. In the case of `CC(=O)N1CCC(NC(=O)NC2CCCCCCC2)CC1` [Compound 7-84, 1-(1-acetylpiperidin-4-yl)-3-cyclooctylurea], the “% inh.” value (Inhibition Conc. 200 nM) is listed as 92%. With `CNS(=O)(=O)c1cccc(C(=O)N2CCC(NC(=O)Cc3ccc(Cl)cc3)CC2)c1` [Compound 7-85, 2-(4-chlorophenyl)-N-(1-(3-(N-methyl-sulfamoyl)benzoyl)-piperidin-4-yl)acetamide], the “% inh.” value (Inhibition Conc. 500 nM) was 73%. Consider `CC(C)(C)OC(=O)N1CCC(NC(=O)Nc2ccc(N3CCOCC3)cc2)CC1` [Compound 7-86, tert-butyl 4-(3-(4-morpholinophenyl)ureido)piperidine-1-carboxylate], for which the “% inh.” value (Inhibition Conc. 2000 nM) turned out to be 90%. As to `CC(=O)N1CCC(NC(=O)Nc2ccc(N3CCOCC3)cc2)CC1` [Compound 7-87, 1-(1-acetylpiperidin-4-yl)-3-(4-morpholinophenyl)urea], under “Inhibition Conc. 2000 nM”, the “% inh.” value was determined as 0%. For the compound `CS(=O)(=O)N1CCC(NC(=O)NC2CCN(S(C)(=O)=O)CC2)CC1` [Compound 8-1, 1,3-bis(1-(methylsulfonyl)piperidin-4-yl)urea], under “Inhibition Conc. 5000 nM”, the “% inh.” value is on record as 79%. As to `CC(=O)N1CCC(NC(=O)NC2CCN(C(=O)OC(C)(C)C)CC2)CC1` [Compound 8-2, tert-butyl 4-(3-(1-acetylpiperidin-4-yl)ureido)piperidine-1-carboxylate], the “% inh.” value (Inhibition Conc. 2000 nM) is given as 86%. In the case of `CC(=O)N1CCC(NC(=O)NC2CCN(C)CC2)CC1` [Compound 8-3, 1-(1-acetylpiperidin-4-yl)-3-(1-methylpiperidin-4-yl)urea], the “% inh.” value (Inhibition Conc. 2000 nM) is 0%.

`CC(=O)N1CCC(NC(=O)NC2CCOCC2)CC1` [Compound 8-4, 1-(1-acetylpiperidin-4-yl)-3-(tetrahydro-2H-pyran-4-yl)urea]: the “% inh.” value (Inhibition Conc. 2000 nM) came out at 23%. As to `CC(=O)N1CCC(NC(=O)NC2CCS(=O)(=O)CC2)CC1` [Compound 8-5, 1-(1-acetylpiperidin-4-yl)-3-(1,1-dioxo-tetrahydro-2H-thiopyran-4-yl)urea], where the note is “Inhibition Conc. 2000 nM”, the “% inh.” value came to 23%. For `CC(=O)N1CCC(NC(=O)NC2CCN(C(=O)C(C)(C)C)CC2)CC1` [Compound 8-6, 1-(1-acetylpiperidin-4-yl)-3-(1-pivaloylpiperidin-4-yl)urea], where the note is “Inhibition Conc. 2000 nM”, the “% inh.” value was 69%.
